What was measured:
[1] = Preliminary pharmacokinetic study, plasma concentration by RP-HPLC-fluorescence; type: in vivo, C57BL/6 mice; conditions: for desired plasma concentration (10 μM) reached: dose 0.5 mg/mouse, desired ~2 μg/mL for scoparone, ~3 μg/mL for 50
Description: S23 Preliminary pharmacokinetic studies of scoparone and 6,7-diprenoxycoumarin
Table S1 Blood concentration of scoparone. mouse Dose given (mg) Body weight (g) Time (min) Cal. Conc. (µg/ml) […]
Table S2 Blood concentration of 6,7-diprenoxycoumarin.
Adopt previous study on fraxetin (unpublished result) , a coumarin compound, RP -HPLC -fluorescence method (excitation 380 nm and emission 480 nm ) was applied on analysis of the concentration of scoparone and 6,7 -diprenoxycoumarin. […]
without interference with endogenous plasma constituents. […]
retention time of approximately 7.51 in mouse plasma.
0.01 to 10.00 µg/ml for scoparone and 0.025 to 6.25 µg/ml for 6,7 -diprenoxycoumarin. The relativ e error and coefficient of variance are all below 15 %. The LOQ were 0.01 and 0.005 µg/ml for scoparone and 6,7 - diprenoxycoumarin. Linearity over the investigated concentration was obtained.
After method validation, C57BL/6 mice were given scoparone (i.p.) or 6,7 -diprenoxycoumarin and plasma […]
In pharmacological assay, the desired scoparone […]
the amount of drug increased to 0.5 mg/mice. Thus, the CAR activating effect may not be seen in vivo, which can account for no blood sugar lowering effects of 6,7-diprenoxycoumarin in vivo.
Acetonitrile HPLC-grade (LiChrosolv® ) were purchased from Sigma-Aldrich Chemie GmbH. Deionized water was purified on a Milli-Q system. Scoparone and 6,7-diprenoxycoumarin were synthesized from our […]
lab and purity was > 95 % from HPLC-UV method.
Instrumentation and Chromatographic Condition
Hitachi L-7100 liquid chromatography system (Hitachi, Japan) comprised a Hitachi D-7000 interface, a Hitachi L-7200 auto sampler, a Hitachi L-7400 UV detector and a Hitachi L-2480 FL detector. The HPLC colum consisted of a Thermo Hypurity® RP-18 column (200 × 4.6 mm, 5 µm) connected to a Hichrom ODS guard column. The isocratic elution was applied for scoparone (ACN-H2O = 3:7) and 6,7-diprenoxycoumarin (ACN-H2O = 7:3). The flow rate was set at 1.0 ml/min. The detection fluorescence was set at excitation 380 nm and emission 480 nm. A volume of 20 µL of sample was subjected to HPLC for […]
Animals and Sample Preparation
Eight-week old male or female C57/BL6 mice were acquired from BioLASCO Taiwan Co., Ltd. Experimental animals were allowed to acclimate to the controlled photoperiod (a cycle of 12-hr light/ 12-hr dark), humidity (40-60% relative humidity) and temperature (22 ± 2 °C) with ad libitum supply of standard chow diets and drinking water for one week prior to the experimental treatment in accordance with the Guide for the Care and Use of Laboratory Animals (Institute of Laboratory Animal Resources Commission on Life Sciences, 2011). Acclimated animals were randomly separated into two groups: scoparone-treated or 6,7-diprenoxycoumarin-treated. Mice were administered indicated dose i.p. All mice were anesthetized with Zoetil (10 mg/ml, 0.05 ml/10 gmbw, i.p.) before blood sampling. The blood samples (approximately 300 µL) were […]
centrifuging at 10,000 rpm for 10 min, the plasma samples were obtained. The plasma (50 µL) was mixed with 150 µL ACN, vortexed, and centrifuged for […], 10 mins and at 4 °C. The supernatant was obtained and 20 µL of sample was subjected to HPLC analysis.
Institute of Laboratory Animal Resources Commission on Life Sciences, National Research Council. In Guide for the Care and Use of Laboratory Animals, 8th ed.; National Academy Press: Washington, DC, 2011.

[2] = tested on: CAR protein; assay: Immunofluorescence staining for CAR translocation in Hep3B cells; type: cell-based, human; conditions: 10 μM, 2 h
Method: (§1) Figure 3 Image of immunofluorescence staining for CAR translocation in Hep3B cells after 6,7-diprenoxycoumarin (50) treatment (A) and scoparone treatment (C). Hep3B cells were treated with 50 (10 μM) for 2 h. The negative control group was pre-treated with 10 nM okadaic acid (OA). The blue and green fluorescence stands for signals of nuclei and CAR protein, respectively. The protein expression of nuclear CAR after 6,7-diprenoxycoumarin (50) treatment for 2 h (B).
Hep3B cells (4 × 10^5) were grown on coverslips for overnight then washed twice with 1× PBS and fixed with 4% paraformaldehyde in 1× PBS for 30 min at room temperature. Cells were then permeabilized with 1× PBS containing 0.1% (v/v) Triton X-100 for 10–15 min and blocked in 1× PBS containing 5% BSA for 1 h at room temperature. CAR antibody (1:200 dilutions) was added and reacted at room temperature for 2 h in 1× PBS containing 5% BSA. FITC-conjugated goat anti-rabbit IgG antibody was added for another 1 h at room temperature. Coverslips were mounted and images were acquired under a fluorescence microscope.

[3] = tested on: nuclear CAR; assay: Protein expression of nuclear CAR (nuclear extraction, western blot); type: cell-based, human; conditions: Hep3B, treatment for 2 h
Method: as §1
Cells were harvest by centrifugation after trypsin-EDTA treatment. The ice-cold CER I (10 μL/1 × 10^6 cells) was added to the cell pellet following the manufacturer’s instruction. The tube was vigorously vortexed on the highest setting for 15 s to fully suspend the cell pellet, incubated on ice for 10 min, then ice-cold CER II was added to the tube and vortexed for 5 s on the highest setting. After incubating in ice for 1 min, tube was vortexed for 5 s on the highest setting then subjected to centrifuge for 5 min at 16,000× g. The supernatant (cytoplasmic fraction) was […] to a clean pre-chilled tube and the nuclear fraction (pellet) was re-suspended in ice-cold NER. […]
Protein concentration of each sample was determined using a BCA Protein Assay Kit (Pirece®, Thermo Scientific). […] The emitted fluorescence from the membrane was caught on a LAS-4000 biomolecule imager (FUJI.).

COc1cc2ccc(=O)oc2cc1OC [Compound 39, scoparone]
Blood concentration, Cal. Conc. ([1]; Table S1, Study 1 mouse 1, dose given 0.2 mg i.p., 10 min): 0.41 µg/mL
Blood concentration, Cal. Conc. ([1]; Table S1, Study 1 mouse 2, dose given 0.2 mg i.p., 60 min): 0.26 µg/mL
Blood concentration, Cal. Conc. ([1]; Table S1, Study 1 mouse 3, dose given 0.2 mg i.p., 315 min): 0.04 µg/mL
Blood concentration, Cal. Conc. ([1]; Table S1, Study 2 mouse 3, dose given 0.5 mg i.p., 320 min): 0.04 µg/mL
desired plasma concentration (10 μM) reached [1]: can be achieved

CC(C)=CCOc1cc2ccc(=O)oc2cc1OCC=C(C)C [Compound 50, 6,7-diprenoxycoumarin]
Blood concentration, Cal. Conc. ([1]; Table S2, Study 1 mouse 1, dose given 0.36 mg i.p., 10 min): 0.56 µg/mL
Blood concentration, Cal. Conc. ([1]; Table S2, Study 1 mouse 2, dose given 0.36 mg i.p., 60 min): 0.08 µg/mL
Blood concentration, Cal. Conc. ([1]; Table S2, Study 1 mouse 3, dose given 0.36 mg i.p., 110 min): 0.07 µg/mL
Blood concentration, Cal. Conc. ([1]; Table S2, Study 1 mouse 4, dose given 0.36 mg i.p., 360 min): 0.04 µg/mL
Blood concentration, Cal. Conc. ([1]; Table S2, Study 2 mouse 1, dose given 0.5 mg i.p., 11 min): 0.31 µg/mL
Blood concentration, Cal. Conc. ([1]; Table S2, Study 2 mouse 2, dose given 0.5 mg i.p., 60 min): 0.12 µg/mL
Blood concentration, Cal. Conc. ([1]; Table S2, Study 2 mouse 3, dose given 0.5 mg i.p., 318 min): 0.027 µg/mL
desired plasma concentration (10 μM) reached [1]: cannot be obtained
translocation of CAR protein [2]: confirmed
protein expression of nuclear CAR [3]: increased
